Active and inactive are the calls of the source. No cut-off for these calls is given here.
Tests used:
[1] = test system: U373-MAGI; assay: Increase in 5-aza-dCTP/dCTP ratio in human U373-MAGI cells at 50 uM preincubated for 2 hrs followed by 5-aza-dC addition measured after 4 hrs by LC-MS/MS analysis relative to 5-aza-dC; assay type: functional, cell-based
[2] = test system: Human immunodeficiency virus 1; assay: Antiviral activity against VSV-G pseudotyped HIV-1 NL4-3 infected in human U373-MAGI cells assessed as reduction in U5-gag level at 50 uM measured at 6 hrs post infection by qPCR method; assay type: functional, organism-based
[3] = test system: Human immunodeficiency virus 1; assay: Potentiation of 5-Aza-C-induced antiviral activity against VSV-G pseudotyped HIV-1 NL4-3 infected in human U373-MAGI cells assessed as reduction in gag level at 50 uM after 2 to 72 hrs by qPCR method; assay type: functional, organism-based
[4] = test system: Human immunodeficiency virus 1; assay: Antiviral activity against VSV-G pseudotyped HIV-1 NL4-3 infected in human U373-MAGI cells assessed as Vif mutation at 50 uM incubated for 4 hrs prior to infection measured at 72 hrs post infection by illumina sequencing method (reference value: 19.2%); assay type: functional
[5] = test system: Human immunodeficiency virus 1; assay: Potentiation of 5-Aza-C-induced antiviral activity against VSV-G pseudotyped HIV-1 NL4-3 infected in human U373-MAGI cells assessed as reduction in U5-gag level at 50 uM after 2 to 72 hrs by qPCR method; assay type: functional, organism-based
[6] = test system: U373-MAGI; assay: Reduction in 5-aza-dCTP level in human U373-MAGI cells at 200 uM preincubated for 2 hrs followed by 5-aza-C addition measured after 4 hrs by LC-MS/MS analysis; assay type: functional, cell-based

In the case of `Oc1ccc(/C=C/c2cc(O)cc(O)c2)cc1` [RESVERATROL], the Activity [1] is reported as “Active”, the Activity [2] is reported as “Active” and the Activity [3] is reported as “Active”. The Activity [4] was 23.4%, the Activity [5] was “Active” and the Activity [6] was “Active”.

— ChEMBL document CHEMBL3797079, “Synergistic reduction of HIV-1 infectivity by 5-azacytidine and inhibitors of ribonucleotide reductase” (Bioorg Med Chem, 2016)
